Results from PMC11620517, “Novel hydrazone compounds with broad-spectrum antiplasmodial activity and synergistic interactions with antimalarial drugs” (Antimicrobial Agents and Chemotherapy, 2024).
Values joined by “and” are separate entries in the source; they are usually repeats but may differ in a detail not shown here. Equal entries are not always repeated. Where two headings read alike, the source gives them in different places.

Assays:
P. falciparum D6 = experiment: Malaria SYBR Green I-Based Fluorescence (MSF) assay, blood stages; assay type: cell-based; details: Plasmodium falciparum, D6; blood stages, 72 hours, drug-sensitive strain; read-out: IC50 (µM) (±SD) for strain: D6
Description: (§1) MSF assays were performed in vitro with four P. falciparum strains: D6 (drug sensitive), TM91-C235 (multidrug resistant), W2 (CQ resistant), and C2B (multidrug resistant against ATQ). Parasite strains were kept continuously in long-term cultures as described ([22]). Pre-dosed 384-well plates containing […] serial dilutions of CB compounds (0.0098–20 µM) were prepared using the Tecan Freedom Evo liquid handling system (Tecan USA, Inc., Durham, NC, USA) and were stored at 4°C. A CQ control plate (2,000 ng/mL) was included in each run. Based on modifications of previous methods ([17], [55]), late-ring or early-trophozoite stages were cultured in pre-dosed plates with 0.3% parasitemia and 2% hematocrit. Cultures were incubated for 72 hours at 37°C in a controlled atmosphere of 5% CO2, 5% O2, and 90% N2. Lysis buffer, consisting of 20 mM Tris HCl, 5 mM EDTA, 1.6% Triton X, 0.016% saponin, and SYBR Green I dye at a 20X concentration (Invitrogen #S-7567), was added to the plates for a final 10X SYBR Green concentration. Plates containing cell culture media and lysis buffer were incubated in the dark at 25°C for 24 hours, and the relative fluorescence units (RFU) were measured using the Tecan Genios Plus (Tecan USA, Inc.).

P. falciparum TM91c235 = experiment: as above; assay type: cell-based; details: Plasmodium falciparum; blood stages, 72 hours, multidrug resistant strain; read-out: IC50 (µM) (±SD) for strain: TM91c235
Description: as §1

P. falciparum C2B = experiment: as above; assay type: cell-based; details: Plasmodium falciparum, 72 h, read-out: IC50 (µM) (±SD) for strain: C2B
Description: as §1

P. falciparum W2 = experiment: as above; assay type: cell-based; details: Plasmodium falciparum, W2; blood stages, 72 hours, CQ resistant strain; read-out: IC50 (µM) (±SD) for strain: W2
Description: as §1

[1] = tested on: P. berghei ookinete development (Ookluc parasites); experiment: P. berghei ookinete luciferase inhibition assay; assay type: cell-based, Plasmodium berghei; details: Plasmodium berghei, 24 h, 24 hours at 19°C, luminescence; read-out: IC50 (ookinete development)
Description: Mice were pretreated with phenylhydrazine [6 mg/mL, intraperitoneal injection (IP)] 3 days before intravenous injection (IV) infection with P. berghei Ookluc parasites ([19], [62]). Once parasitemia exceeded 15%, the mice received PYR (1 mg/mL, IP) ([19], [62]). Twenty-four hours after PYR treatment, infected mice were assessed for at least 10 exflagellations before blood was collected by heart puncture ([19], [62]). Infected blood (1:20 dilution) was incubated with 8-point serial dilutions (2.5–75 µM) of CB compounds for 24 hours at 19°C with gentle shaking ([62], [64]). Relative luminescence units (RLU) of mature ookinetes were measured using the Promega Nano-Glo Luciferase Assay System Kit and a SpectraMax M3 Microplate Reader (Molecular Devices, San Jose, CA, USA) after 3 minutes. Giemsa blood smears confirmed ookinetes.

[2] = tested on: primary primate hepatocytes; experiment: hepatocyte toxicity in the P. cynomolgi liver-stage assay; assay type: cell-based
Description: Primary primate hepatocytes were seeded in 384-well plates and used within 2–4 days ([56]). P. cynomolgi B strain parasites were inoculated and developed into hypnozoites and schizonts. CB compounds were tested in 8-point, threefold serial dilutions (100 µM to […]) for both prophylactic (4 days starting with sporozoite addition) and radical cure (4 days starting day 4 post-inoculation) modalities ([56][–][60]). The Operetta CLS imaging system and Harmony Software 4.9 (Perkin Elmer, Waltham, MA, USA) analyzed the plates, and the percentage of inhibition (PI) was calculated in Python using equation (1), where parasitic quantities (hypnozoite and schizont counts) were normalized to the negative control ([57]). Each plate included negative (DMSO) and positive (KDU691, maduramicin, tafenoquine) controls ([58]). IC50 values were determined using an 8-point, threefold dilution format and a Python-adapted grid algorithm for fitting PI to a four-parameter logistic function ([61]).

[3] = tested on: P. falciparum oocyst formation in Anopheles stephensi mosquitoes; experiment: P. falciparum oocyst inhibition assay (SMFA); assay type: in vivo, Plasmodium falciparum; details: for Mean oocyst # excluding zeros (Range): P. falciparum midgut infection in An. stephensi mosquitoes; for Median (oocysts) / Median I % / Prevalence % / Prevalence I %: pooled from two representative experiments; for oocyst formation inhibition: 1 to 10 µM, midguts dissected 8 days after feeding
Description: As previously described, P. falciparum infections were performed using SMFA with NF54 gametocyte cultures diluted to 0.3% stage V gametocytemia ([62]). Infected blood (O+ human 45% hematocrit in serum) was offered to mosquitoes for 30 minutes, and engorged mosquitoes were maintained on a 10% corn syrup solution supplemented by four concentrations of CB compounds (1, 2.5, 5, and 10 µM) at […] ([63]), with DMSO serving as a control. Eight days post-infection, mosquito midguts were dissected and stained with 0.2% mercurochrome for 30 minutes, and oocysts were quantified under a light microscope ([63]).

in vitro = details: human, HepG2 cells
[4] = 1 μM compound, infection prevalence in mosquitoes
[5] = 1 μM, single experiments, read-out: % inhibition (mean)
[6] = 2.5 μM compound, infection prevalence in mosquitoes
[7] = 5 μM compound, infection prevalence in mosquitoes
[8] = 5 μM, single experiments, read-out: % inhibition (mean)
[9] = 10 μM compound, infection prevalence in mosquitoes
[10] = 10 μM compound, oocyst number vs DMSO control, read-out: % inhibition (mean)
[11] = 10 μM compound, oocyst number vs DMSO control, read-out: % inhibition (median)
[12] = 10 μM compound, vs DMSO control, read-out: % inhibition (prevalence)

Compound: O=C(NN=Cc1ccccc1O)c1cc(-c2ccccc2)nc2ccccc12 [CB-53]
- IC50 (P. falciparum D6): > 20 µM
- IC50 (P. falciparum TM91c235): 13.9 µM
- IC50 (P. falciparum C2B): > 20 µM
- IC50 (P. falciparum W2): > 20 µM
- IC50 [1]: 14.7 µM
- Toxicity [2]: >10 µM
- Median oocyst # ([3]; 1 μM compound): 1
- Mean oocyst # excluding zeros (Range) ([3]; 1 μM compound): 36 (0-125)
- Prevalence [3, 4]: 59
- inhibition at 1 µM ([3]; 1 μM compound, oocyst number vs DMSO control, read-out: % inhibition (mean)): 5%
- inhibition at 1 µM ([3]; 1 μM compound, oocyst number vs DMSO control, read-out: % inhibition (median)): 83%
- inhibition at 1 µM ([3]; 1 μM compound, vs DMSO control, read-out: % inhibition (prevalence)): 32%
- Median (oocysts) ([3]; 1 µM): 1
- Median I % ([3]; 1 µM): 83%
- Prevalence % ([3]; 1 µM): 59%
- Prevalence I % ([3]; 1 µM): 32%
- inhibition at 1 µM [3, 5]: 36%
- Median oocyst # ([3]; 2.5 μM compound): 1
- Mean oocyst # excluding zeros (Range) ([3]; 2.5 μM compound): 29 (0-115)
- Prevalence [3, 6]: 60
- inhibition at 2.5 µM ([3]; 2.5 μM compound, oocyst number vs DMSO control, read-out: % inhibition (mean)): 22%
- inhibition at 2.5 µM ([3]; 2.5 μM compound, oocyst number vs DMSO control, read-out: % inhibition (median)): 83%
- inhibition at 2.5 µM ([3]; 2.5 μM compound, vs DMSO control, read-out: % inhibition (prevalence)): 31%
- Median (oocysts) ([3]; 2.5 µM): 1
- Median I % ([3]; 2.5 µM): 83%
- Prevalence % ([3]; 2.5 µM): 60%
- Prevalence I % ([3]; 2.5 µM): 31%
- Prevalence ([3]; 2.5 μM, single experiments): 67 and 91 and 47 and 70
- inhibition at 2.5 µM ([3]; 2.5 μM, single experiments, read-out: % inhibition (mean)): 37%
- Median oocyst # ([3]; 5 μM compound): 0
- Mean oocyst # excluding zeros (Range) ([3]; 5 μM compound): 26 (0-83)
- Prevalence [3, 7]: 48
- inhibition at 5 µM ([3]; 5 μM compound, oocyst number vs DMSO control, read-out: % inhibition (mean)): 44%
- inhibition at 5 µM ([3]; 5 μM compound, vs DMSO control, read-out: % inhibition (prevalence)): 44%
- Median (oocysts) ([3]; 5 µM): 0
- Median I % ([3]; 5 µM): 100%
- Prevalence % ([3]; 5 µM): 48%
- Prevalence I % ([3]; 5 µM): 44%
- % inhibition (mean) ([3]; 5 μM, single experiments): 23%
- inhibition at 5 µM [3, 8]: 24%
- Median oocyst # ([3]; 10 μM compound): 1
- Mean oocyst # excluding zeros (Range) ([3]; 10 μM compound): 28 (0-129)
- Prevalence [3, 9]: 58
- inhibition at 10 µM [3, 10]: 28%
- inhibition at 10 µM [3, 11]: 83%
- inhibition at 10 µM [3, 12]: 33%
- Median (oocysts) ([3]; 10 µM): 1
- Median I % ([3]; 10 µM): 83%
- Prevalence % ([3]; 10 µM): 58%
- Prevalence I % ([3]; 10 µM): 33%
- oocyst formation inhibition [3]: inhibit the development of oocysts
- IC50 at 48 h (in vitro): > 20 µM

Compound: COc1cccc(/C=N/NC(=O)c2cc(-c3ccccc3)nc3ccccc23)c1O [CB-58]
- IC50 (P. falciparum D6): 8.44 µM
- IC50 (P. falciparum TM91c235): 10.6 µM
- IC50 (P. falciparum C2B): 8.83 µM
- IC50 (P. falciparum W2): 5.63 µM
- IC50 [1]: 32.5 µM
- Toxicity [2]: >10 µM
- Median oocyst # ([3]; 1 μM compound): 6
- Mean oocyst # excluding zeros (Range) ([3]; 1 μM compound): 19 (0-95)
- Prevalence [3, 4]: 76
- Median (oocysts) ([3]; 1 µM): 6
- Prevalence % ([3]; 1 µM): 75%
- % inhibition (prevalence) ([3]; 1 μM, single experiments): 1%
- Prevalence ([3]; 1 μM, single experiments): 69 and 82 and 83
- inhibition at 1 µM [3, 5]: 5%
- inhibition at 1 µM ([3]; 1 μM, single experiments, read-out: % inhibition (median)): 23%
- Median oocyst # ([3]; 2.5 μM compound): 7
- Mean oocyst # excluding zeros (Range) ([3]; 2.5 μM compound): 26 (0-103)
- Prevalence [3, 6]: 72
- Median (oocysts) ([3]; 2.5 µM): 7
- Prevalence % ([3]; 2.5 µM): 72%
- % inhibition (prevalence) ([3]; 2.5 μM, single experiments): 1%
- Prevalence ([3]; 2.5 μM, single experiments): 66 and 79 and 87
- Median oocyst # ([3]; 5 μM compound): 6
- Mean oocyst # excluding zeros (Range) ([3]; 5 μM compound): 14 (0-70)
- Prevalence [3, 7]: 87
- Median (oocysts) ([3]; 5 µM): 6
- Prevalence % ([3]; 5 µM): 87%
- Prevalence ([3]; 5 μM, single experiments): 96 and 83 and 69
- inhibition at 5 µM [3, 8]: 10%
- inhibition at 5 µM ([3]; 5 μM, single experiments, read-out: % inhibition (median)): 26%
- Median oocyst # ([3]; 10 μM compound): 3
- Mean oocyst # excluding zeros (Range) ([3]; 10 μM compound): 17 (0-93)
- Prevalence [3, 9]: 57
- inhibition at 10 µM [3, 10]: 10%
- inhibition at 10 µM [3, 11]: 50%
- inhibition at 10 µM [3, 12]: 19%
- Median (oocysts) ([3]; 10 µM): 3
- Median I % ([3]; 10 µM): 50%
- Prevalence % ([3]; 10 µM): 57%
- Prevalence I % ([3]; 10 µM): 19%
- % inhibition (prevalence) ([3]; 10 μM, single experiments): 15%
- inhibition at 10 µM ([3]; 10 μM, single experiments, read-out: % inhibition (mean)): 30%
- inhibition at 10 µM ([3]; 10 μM, single experiments, read-out: % inhibition (prevalence)): 30%
- oocyst formation inhibition [3]: did not inhibit oocyst formation
- IC50 at 48 h (in vitro): > 20 µM
